According to the supplement of paper PMC11208160:

assay: recombinant UMI read abundance after kanamycin selection (control-corrected) (log10(CPM+1)); higher = more efficient recombination; extreme values may be limits of the assay; sequences stand for … in AGTGCAGAGAAAATCGGCCAGTTTTCTCTGCCTGCAGTCCGCATGCCGTGGGACCCCTTGGGTTCTAACCTGTTGCCTAGATTTATGCAGCGGACTGCCTTTCTCCCAAAGTGATAAACCGG…AGGTTGGTTTCACT; site = the 11-nt donor
In short: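 In a pooled Escherichia coli screen for the IS621 bridge recombinase, donor and donor-binding-loop pairs were each placed with a 12-nt UMI on a plasmid bearing a promoterless kanamycin gene. This library was co-electroporated with a target plasmid encoding a fixed target and T7-inducible recombinase, and cells were plated either on IPTG (0.07 mM) plus kanamycin or without selection, in two replicates each. Recombinant UMIs were PCR-amplified across the donor–target junction and sequenced, and counts were converted to CPM, averaged over replicates, scaled by control-derived factors and reported as log10(CPM+1).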
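Also: IS621 bridge recombinase in Escherichia coli cells against a fixed T5 target plasmid.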

| Sequence | recombinant UMI read abundance (log10) |
| --- | --- |
| CCTAAAGCATGGACCGGTTTTCCCGGTAATCCGTATTTGAG (site CCTAAAGCTGT) | 0 |
| CCTAAAGCATGGACCGGTTTTCCCGGTAATCCGTATTTGAG (site CCTAAAGCTTT) | 0 |
| CCTAAAGCATGGACCGGTTTTCCCGGTAATCCGTATTTGCT (site CCTAAAGCTAA) | 0.00467 |
| CCTAAAGCATGGACCGGTTTTCCCGGTAATCCGTATTTGCT (site CCTAAAGCTAC) | 0 |
| CCTAAAGCATGGACCGGTTTTCCCGGTAATCCGTATTTGCT (site CCTAAAGCTAG) | 0 |
| CCTAAAGCATGGACCGGTTTTCCCGGTAATCCGTATTTGCT (site CCTAAAGCTAT) | 0 |
| CCTAAATCATGGACCGGTTTTCCCGGTAATCCGTATTTGCA (site CCTAAATCTTG) | 0 |
| CCTAAGTCATGGACCGGTTTTCCCGGTAATCCGTATTTGCA (site CCTAAGTCTTG) | 0 |
| CCTAATACATGGACCGGTTTTCCCGGTAATCCGTATTTGGT (site CCTAATACTAC) | 0 |
| CCTAATACATGGACCGGTTTTCCCGGTAATCCGTATTTGGT (site CCTAATACTCC) | 0.0104 |
| CCTAATACATGGACCGGTTTTCCCGGTAATCCGTATTTGGT (site CCTAATACTGC) | 0 |
| CCTAATACATGGACCGGTTTTCCCGGTAATCCGTATTTGGT (site CCTAATACTTC) | 0 |
| CCTAATACATGGACCGGTTTTCCCGGTAATCCGTATTTGTC (site CCTAATACTGA) | 0 |
| CCTAATACATGGACCGGTTTTCCCGGTAATCCGTATTTGTC (site CCTAATACTGC) | 0 |
| CCTAATACATGGACCGGTTTTCCCGGTAATCCGTATTTGTC (site CCTAATACTGG) | 0 |
| CCTAATACATGGACCGGTTTTCCCGGTAATCCGTATTTGTC (site CCTAATACTGT) | 0 |
| CCTAATGCATGGACCGGTTTTCCCGGTAATCCGTATTTGGC (site CCTAATACTGC) | 0 |
| CCTAATGCATGGACCGGTTTTCCCGGTAATCCGTATTTGGC (site CCTAATCCTGC) | 0 |
| CCTAATGCATGGACCGGTTTTCCCGGTAATCCGTATTTGGC (site CCTAATGCTGC) | 0 |

| Sequence | recombinant UMI read abundance (log10) |
| --- | --- |
| CCTAATGCATGGACCGGTTTTCCCGGTAATCCGTATTTGGC (site CCTAATTCTGC) | 0 |
| CCTACGGCATGGACCGGTTTTCCCGGTAATCCGTATTTGCG (site CCTACGGCTCG) | 0.00682 |
| CCTATGGCATGGACCGGTTTTCCCGGTAATCCGTATTTGGT (site CCTATGGCTAC) | 0.012 |
| CCTATTTCATGGACCGGTTTTCCCGGTAATCCGTATTTGAA (site CCTATTTCTTT) | 0 |
| CCTCAGCCATGGACCGGTTTTCCCGGTAATCCGTATTTGGC (site CCTCAGCCTGC) | 0 |
| CCTCCTTCATGGACCGGTTTTCCCGGTAATCCGTATTTGCT (site CCTCCTTCTAG) | 0 |
| CCTCGTACATGGACCGGTTTTCCCGGTAATCCGTATTTGGT (site CCTCGTACTAC) | 0.0115 |
| CCTGAACCATGGACCGGTTTTCCCGGTAATCCGTATTTGGT (site CCTGAACCTAC) | 0.00702 |
| CCTGATACATGGACCGGTTTTCCCGGTAATCCGTATTTGTA (site CCTGATACTTA) | 0.326 |
| CCTGCCCCATGGACCGGTTTTCCCGGTAATCCGTATTTGGC (site CCTGCCCCTGC) | 0 |
| CCTGGCTCATGGACCGGTTTTCCCGGTAATCCGTATTTGCA (site CCTGGCTCTTG) | 0 |
| CCTGTAACATGGACCGGTTTTCCCGGTAATCCGTATTTGCA (site CCTGTAACTTG) | 0 |
| CCTGTACCATGGACCGGTTTTCCCGGTAATCCGTATTTGCG (site CCTGTACCTCG) | 0.0076 |
| CCTTAGCCATGGACCGGTTTTCCCGGTAATCCGTATTTGAA (site CCTTAGCCTTT) | 0 |
| CCTTATACATGGACCGGTTTTCCCGGTAATCCGTATTTGAG (site CCTTATACTCT) | 0.0212 |
| CCTTCTCCATGGACCGGTTTTCCCGGTAATCCGTATTTGTG (site CCTTCTCCTCA) | 0.0156 |
| CCTTCTTCATGGACCGGTTTTCCCGGTAATCCGTATTTGGG (site CCTTCTTCTCC) | 0.00401 |
| CCTTCTTCATGGACCGGTTTTCCCGGTAATCCGTATTTGTC (site CCTTCTTCTGA) | 0 |
| CCTTTAGCATGGACCGGTTTTCCCGGTAATCCGTATTTGTG (site CCATTAGCTCA) | 0.00718 |

| Sequence | recombinant UMI read abundance (log10) |
| --- | --- |
| CCTTTAGCATGGACCGGTTTTCCCGGTAATCCGTATTTGTG (site CCCTTAGCTCA) | 0.00968 |
| CCTTTAGCATGGACCGGTTTTCCCGGTAATCCGTATTTGTG (site CCGTTAGCTCA) | 0.00885 |
| CCTTTAGCATGGACCGGTTTTCCCGGTAATCCGTATTTGTG (site CCTTTAGCTCA) | 0.0063 |
| CCTTTGCCATGGACCGGTTTTCCCGGTAATCCGTATTTGGC (site CCTTTGCCTGC) | 0 |
| CCTTTGTCATGGACCGGTTTTCCCGGTAATCCGTATTTGGA (site CCTTTGTCTTC) | 0.00278 |
| CGAAAAGCATGGACCGGTTTTCCCGGTAATCCGTATTTGCA (site CGAAAAGCTTG) | 0 |
| CGAAAGACATGGACCGGTTTTCCCGGTAATCCGTATTTGGG (site CGAAAGACTCC) | 0.621 |
| CGAAAGACATGGACCGGTTTTCCCGGTAATCCGTATTTGGT (site CGAAAGACTAC) | 2 |
| CGAAAGGCATGGACCGGTTTTCCCGGTAATCCGTATTTGCT (site AGAAAGGCTAG) | 0 |
| CGAAAGGCATGGACCGGTTTTCCCGGTAATCCGTATTTGCT (site CGAAAGGCTAG) | 2.39 |
| CGAAAGGCATGGACCGGTTTTCCCGGTAATCCGTATTTGCT (site GGAAAGGCTAG) | 0 |
| CGAAAGGCATGGACCGGTTTTCCCGGTAATCCGTATTTGCT (site TGAAAGGCTAG) | 0 |
| CGAACCACATGGACCGGTTTTCCCGGTAATCCGTATTTGTG (site CGAACCACTCA) | 0.523 |
| CGAACGACATGGACCGGTTTTCCCGGTAATCCGTATTTGTT (site CGAACGACTAA) | 1.08 |
| CGAACGACATGGACCGGTTTTCCCGGTAATCCGTATTTGTT (site CGACCGACTAA) | 0.00483 |
| CGAACGACATGGACCGGTTTTCCCGGTAATCCGTATTTGTT (site CGAGCGACTAA) | 0.0306 |
| CGAACGACATGGACCGGTTTTCCCGGTAATCCGTATTTGTT (site CGATCGACTAA) | 0.00769 |
| CGAACTCCATGGACCGGTTTTCCCGGTAATCCGTATTTGGG (site CGAACTCCTCC) | 0.143 |
| CGAAGACCATGGACCGGTTTTCCCGGTAATCCGTATTTGGG (site CGAAGACCTCC) | 0 |
